Test results published in the supplement of paper PMC10307832.

Tests used:
Assay in all cases: relative viability (nuclei count vs DMSO), 5 days (fraction); higher = more cells survive
[1] = compound: C=CCc1cccc(/C=N/NC(=O)CN2CCN(Cc3ccccc3)CC2)c1O [PAC-1] + Cc1cc(Nc2cc(N3CCN(C)CC3)nc(Sc3ccc(NC(=O)C4CC4)cc3)n2)n[nH]1 [Tozasertib] (partner 0.1 µM)
Procedure, shortened: (§1)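 One day after seeding in 1536-well plates, lung cancer cell lines were dosed by pin tool. Dosing was either single-drug or a fixed anchor-drug dose plus five library-drug doses (not always all listed) in √10 steps. After 5 days, nuclei were stained in one fix-and-stain step and counted on 4× images, and relative viability is the nuclei count of treated wells over that of vehicle wells, given as the median of duplicate plates.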

[2] = compound: C=CCc1cccc(/C=N/NC(=O)CN2CCN(Cc3ccccc3)CC2)c1O [PAC-1] + C[C@]1(O)C[C@@H](c2nc(-c3ccc4ccc(-c5ccccc5)nc4c3)c3c(N)nccn32)C1 [Linsitinib] (partner 1 µM)
Procedure, shortened: as §1

[3] = compound: C=CC(=O)N1CCC[C@@H](n2nc(-c3ccc(Oc4ccccc4)cc3)c3c(N)ncnc32)C1 [Ibrutinib] + C[C@@H](Oc1cc(-c2cnn(C3CCNCC3)c2)cnc1N)c1c(Cl)ccc(F)c1Cl [Crizotinib] (partner 1 µM)
Procedure, shortened: as §1

[4] = compound: C=CC(=O)N1CCC[C@@H](n2nc(-c3ccc(Oc4ccccc4)cc3)c3c(N)ncnc32)C1 [Ibrutinib] + Nc1ncn([C@H]2C[C@H](O)[C@@H](CO)O2)c(=O)n1 [Decitabine] (partner 2 µM)
Procedure, shortened: as §1

| Cell Line | relative viability ([1]; first compound 0.02 µM) | relative viability ([1]; first compound 0.06325 µM) | relative viability ([1]; first compound 0.2 µM) | relative viability ([1]; first compound 2 µM) | relative viability ([2]; first compound 0.02 µM) | relative viability ([2]; first compound 0.06325 µM) | relative viability ([2]; first compound 0.2 µM) | relative viability ([2]; first compound 2 µM) | relative viability ([3]; first compound 0.005 µM) | relative viability ([3]; first compound 0.01581 µM) | relative viability ([3]; first compound 0.05 µM) | relative viability ([3]; first compound 0.1581 µM) | relative viability ([3]; first compound 0.5 µM) | relative viability ([4]; first compound 0.005 µM) | relative viability ([4]; first compound 0.01581 µM) | relative viability ([4]; first compound 0.05 µM) | relative viability ([4]; first compound 0.1581 µM) | relative viability ([4]; first compound 0.5 µM) |
| --- | --- | --- | --- | --- | --- | --- | --- | --- | --- | --- | --- | --- | --- | --- | --- | --- | --- | --- |
| LXF-289 | 0.148 | 0.234 | 0.197 | 0.165 | 0.972 | 0.992 | 0.946 | 0.909 | 0.948 | 0.804 | 0.807 | 0.784 | 0.791 | 0.357 | 0.295 | 0.381 | 0.38 | 0.342 |
| NCI-H522 | 0.598 | 0.582 | 0.62 | 0.469 | – | – | – | – | – | – | – | – | – | 0.64 | 0.588 | 0.677 | 0.626 | 0.637 |
| NCI-H1299 | – | – | – | – | 0.947 | 0.963 | 0.953 | 0.96 | 1 | 0.897 | 0.957 | 0.977 | 0.965 | – | – | – | – | – |
| NCI-H1395 | 0.629 | 0.7 | 0.749 | 0.646 | 1.02 | 1.15 | 0.842 | 0.958 | – | – | – | – | – | 0.777 | 0.688 | 0.811 | 0.697 | 0.75 |
| NCI-H1563 | – | – | – | – | 1.15 | 1.32 | 1.28 | 1.19 | 0.815 | 0.874 | 0.803 | 0.875 | 0.8 | – | – | – | – | – |
| NCI-H1623 | 0.42 | 0.43 | 0.427 | 0.482 | – | – | – | – | – | – | – | – | – | – | – | – | – | – |
| NCI-H1648 | 0.6 | 0.606 | 0.464 | 0.488 | – | – | – | – | – | – | – | – | – | 0.509 | 0.434 | 0.518 | 0.433 | 0.364 |
| NCI-H1650 | 0.361 | 0.393 | 0.522 | 0.375 | – | – | – | – | 0.845 | 0.919 | 0.934 | 1.09 | 0.744 | 0.41 | 0.379 | 0.512 | 0.402 | 0.444 |
| NCI-H1703 | – | – | – | – | 0.646 | 0.423 | 0.765 | 0.932 | – | – | 0.839 | 0.934 | 0.729 | – | – | – | – | – |
| NCI-H1792 | – | – | – | – | 0.648 | 0.602 | 0.534 | 0.579 | 0.979 | 0.989 | 1.13 | 0.654 | 0.961 | – | 0.584 | 0.558 | 0.591 | 0.441 |
| NCI-H1793 | 0.316 | 0.338 | 0.439 | 0.238 | 0.728 | 1.01 | 1.21 | 0.96 | – | – | – | – | – | 0.478 | 0.485 | 0.432 | 0.502 | 0.366 |
| NCI-H2170 | 0.693 | 0.776 | 0.805 | 0.712 | – | – | – | – | 1.07 | 0.824 | 0.452 | 1.19 | 0.227 | 0.438 | 0.47 | 0.389 | 0.457 | 0.173 |
| NCI-H2228 | 0.228 | 0.258 | 0.263 | 0.234 | 0.575 | 0.787 | 0.603 | 0.694 | 0.4 | 0.359 | 0.36 | 0.569 | 0.359 | – | – | – | – | – |
| NCI-H2342 | 0.521 | 0.564 | 0.525 | 0.61 | – | – | – | – | – | – | – | – | – | 0.739 | 0.64 | 0.693 | 0.708 | 0.563 |
| SW 900 | 0.581 | 0.61 | 0.473 | 0.465 | – | – | – | – | – | – | – | – | – | 0.401 | 0.509 | 0.412 | 0.432 | 0.458 |
